Values of other authors, collected in US8476259B2, “Fasudil in combination therapies for the treatment of pulmonary arterial hypertension” (Asahi Kasei Pharma Corporation, priority 2005, dated 2013).
Where two headings read alike, the source gives them in different places. One block for each molecule: values may come before it.

How the values were obtained:
[1] = system: Rho-kinase; conditions: administered to rats
[2] = system: PAH; conditions: oral
[3] = system: progressive pulmonary arterial hypertension; conditions: two experimental models
[4] = target: Rho-kinase; conditions: read-out: K(i) value for Rho-kinase
[5] = system: monocrotaline-induced PH in rats; conditions: for pulmonary arterial lesions: intravenous or oral treatment
[6] = system: rat models of systemic hypertension; conditions: oral
[7] = system: chronic hypoxic mice; conditions: for development of chronic hypoxia-induced PH: intravenous or oral treatment
[8] = system: pulmonary hypertension in rats; conditions: for pulmonary vasodilation: spontaneous PH in fawn-hooded rats
[9] = system: chronically hypoxic rats; conditions: for high pulmonary arterial pressure: intravenous or oral treatment
[10] = system: patients with severe pulmonary hypertension; conditions: intravenous
[11] = system: patients with severe PAH; conditions: versus placebo
[12] = system: patients with pulmonary hypertension; conditions: aerosolization
[13] = system: patients with angiographically proven stable angina
[14] = system: patients with Raynaud's phenomenon and systemic sclerosis; conditions: human, in vivo
[15] = system: spontaneously hypertensive rats; conditions: rat, in vivo
[16] = system: rats injected with IL-6; conditions: simultaneous treatment
[17] = in vivo
[18] = inhaled, monocrotaline-induced PH, chronically hypoxic rats
[19] = all 20 patients, 100 mg 3 times a day, 2 weeks
[20] = subgroup (n=8) with well-developed collaterals

inhibitory effect on Rho-kinase [1]: lack the inhibitory effect on Rho-kinase
SMILES: CC#CCC(C)[C@H](O)/C=C/[C@@H]1[C@H]2c3cccc(CCCC(=O)O)c3O[C@H]2C[C@H]1O (mixture of isomers) [beraprost]
benefit in PAH over time [2]: benefit in a study in PAH at 3 and 6 months but not at 9 or 12 months

SMILES: Cc1ccc(NC(=O)c2ccc(CN3CCN(C)CC3)cc2)cc1Nc1nccc(-c2cccnc2)n1 [Gleevec]
lung vascular remodeling, pulmonary hypertension and right heart hypertrophy [3]: virtually complete reversal

SMILES: Cc1cncc2cccc(S(=O)(=O)N3CCCNC[C@@H]3C)c12 [H-1152P, (S)-(+)-2-methyl-1-[(4-methyl-5-isoquinoline)sulfonyl]-homopiperazine]
Ki [4]: 1.6 nM

SMILES: C[C@@H](N)[C@H]1CC[C@H](C(=O)Nc2ccncc2)CC1 [Y-27632]
pulmonary arterial lesions [5]: reduces pulmonary arterial lesions
hypotensive effect ([6]; normotensive rats): smaller transient effect
hypotensive effect ([6]; rat models of systemic hypertension): potent hypotensive effects
development of chronic hypoxia-induced PH [7]: attenuates
mean pulmonary arterial pressure ([8]; 5 minutes of inhaled Y-27632): decreased mean pulmonary arterial pressure without reducing mean systemic arterial pressure
duration of hypotensive effect on hypoxic pulmonary hypertension ([8]; inhaled): at least 5 hrs
pulmonary vasodilation [8, 18]: sustained and selective pulmonary vasodilation
elevated pulmonary artery pressure, acute effect ([9]; intravenous): nearly normalized the elevated pulmonary artery pressure
high pulmonary arterial pressure [9]: nearly normalizes

SMILES: COc1ccccc1Oc1c(NS(=O)(=O)c2ccc(C(C)(C)C)cc2)nc(-c2ncccn2)nc1OCCO [bosentan]
liver toxicity (higher dose): liver toxicity occurred with the higher dose
six minute walk test (whole group, greater improvement at higher doses): improved

SMILES: O=S(=O)(c1cccc2cnccc12)N1CCCNCC1 [fasudil, 1-(5-isoquinolinesulfonyl)-homopiperazine]
pulmonary arterial lesions [5]: reduces pulmonary arterial lesions
development of chronic hypoxia-induced PH [7]: attenuates
pulmonary vascular resistance [10]: significantly reduced
side effects [10]: without side effects
mean pulmonary arterial pressure ([8]; inhaled fasudil, monocrotaline-induced PH, spontaneous PH, chronically hypoxic rats): selective mean pulmonary arterial pressure reductions
pulmonary vasodilation [8, 18]: sustained and selective pulmonary vasodilation
high pulmonary arterial pressure [9]: nearly normalizes

SMILES: CC#CCC(C)[C@H](O)/C=C/[C@@H]1[C@H]2C/C(=C/CCCC(=O)O)C[C@H]2C[C@H]1O (some centres unmarked) [iloprost]
exercise capacity [11]: improved exercise capacity

inhibitory effect on Rho-kinase [1]: lack the inhibitory effect on Rho-kinase
SMILES: CCCCC[C@H](O)/C=C/[C@@H]1[C@H]2C/C(=C/CCCC(=O)O)O[C@H]2C[C@H]1O [prostacyclin]
duration of effects [12]: 15 min

SMILES: COc1cccc(CCc2ccccc2OCC(CN(C)C)OC(=O)CCC(=O)O)c1 (centres unmarked) [sarpogrelate, (φ-amino-alkoxy)phenyl-ethylethylbenzene]
pulmonary vascular remodeling, right side heart failure and mortality ([5]; immediately following monocrotaline injection): suppressed the severe pulmonary vascular remodeling and right side heart failure and reduced mortality
reversal of established pulmonary hypertension ([5]; late treatment): failed to reverse established pulmonary hypertension
number of proliferating cell nuclear antigen-positive cells ([5]; rat, in vivo): reduced
severity of pulmonary hypertension (medial thickness of small pulmonary arteries and right ventricle/left ventricle and septum ratio) ([5]; rat, in vivo): reduced
thickening of the alveolar walls and interstitial inflammatory cell infiltration ([5]; rat, in vivo): reduced
SAS score [13, 19]: significantly increased
exercise time to the onset of 0.1-mV ST depression [13, 19]: prolonged
all parameters ([13]; patients (n=12) without well-developed collaterals): not significantly changed
SAS score [13, 20]: 6.2±1.3 METS
increase of double product at the onset of 0.1-mV ST depression [13, 20]: 15%
time to the onset of 0.1-mV ST depression [13, 20]: 295 ± 127 s
respiratory failure and mean pulmonary arterial pressure [14]: significantly decreased
systolic blood pressure or heart weight [15]: no effect
IL-6-induced increase in medial thickness of small pulmonary arteries and right ventricular hypertrophy [16]: prevented

SMILES: CCCc1nn(C)c2c(=O)[nH]c(-c3cc(S(=O)(=O)N4CCN(C)CC4)ccc3OCC)nc12 [sildenafil]
survival rate ([5]; PH induced by monocrotaline injection): improves survival rate
right ventricular hypertrophy ([7]; chronic hypoxic mice): reduces right ventricular hypertrophy
pulmonary arterial pressure ([9]; sildenafil, chronic hypoxic rats): reduces

SMILES: Cc1cc2c(cc1CC(=O)c1sccc1S(=O)(=O)Nc1onc(C)c1Cl)OCO2 [sitaxsentan]
decrease in pulmonary vascular resistance [17]: 30%
six minute walk test [17]: improvement
